In patent EP0824862A1, “Dihaloformaldoxime carbamates as antimicrobial agents” (ROHM AND HAAS COMPANY, priority 1996, dated 1998):
Converted amounts (≈) assume the structure as drawn.

What was measured:
Format in all cases: cell-based
[1] = test system: Pseudomonas aeruginosa, Klebsiella pneumonia, Enterobacter aerogenes; assay: Speed of kill test in synthetic cooling water; details: mixed culture 1:1:1, 10^6 cells per mL, concentration giving at least a two log reduction
Escherichia coli = assay: Minimum Inhibitory Concentration (MIC) test, two fold serial dilutions; details: unit assumed; for MIC E.Coli M9G: Minimal Salts Media (M9G); for MIC E. Coli TSB: Trypticase Soy Broth (TSB); for MIC E. coli TSBA: Trypticase Soy Broth and anionic surfactant (TSBA)
Description: (§1) The spectrum of antimicrobial activity and the effect of anionic surfactant on the antimicrobial activity of the antimicrobial agents useful in the present invention were determined in Minimum Inhibitory Concentration (MIC) tests. MICs were determined by two fold serial dilutions of a compound in Minimal Salts Media (M9G), Trypticase Soy Broth (TSB) or Tryticase Soy Broth and anionic surfactant (TSBA). The compounds were tested against Aspergillus niger, Rhodotorula rubra, Escherichia coli and Pseudomonas aeruginosa. Results of the MIC tests are shown below.

Pseudomonas aeruginosa = assay: as above; details: Trypticase Soy Broth (TSB); unit assumed
Description: as §1

Rhodotorula rubra = assay: as above; details: Trypticase Soy Broth (TSB); unit assumed
Description: as §1

Aspergillus niger = assay: as above; details: Trypticase Soy Broth (TSB); unit assumed
Description: as §1

Row | Compound | Effective Concentration 4 Hours [1] | Effective Concentration 24 Hours [1] | MIC E.Coli M9G (Escherichia coli) | MIC E. Coli TSB (Escherichia coli) | MIC E. coli TSBA (Escherichia coli) | MIC P. aeruginosa TSB (Pseudomonas aeruginosa) | MIC R. Rubra TSB (Rhodotorula rubra) | MIC A. niger TSB (Aspergillus niger)
1 | Cc1ccc(NC(=O)ON=C(Br)Br)cc1 [Compound 9, N-(4-methylphenyl)-dibromoformaldoxime carbamate] | 125 ppm | 8 ppm | < 4 µg/mL | 32 µg/mL (≈ 95.2 µM) | 32 µg/mL (≈ 95.2 µM) | 16 µg/mL (≈ 47.6 µM) | 3.2 µg/mL (≈ 9.52 µM) | < 0.8 µg/mL
2 | CCCCCCNC(=O)ON=C(Br)Br [Compound 8, N-(n-hexyl)-dibromoformaldoxime carbamate] | <4 ppm | <4 ppm | < 4 µg/mL | 63 µg/mL (≈ 191 µM) | 32 µg/mL (≈ 97 µM) | 125 µg/mL (≈ 379 µM) | 25 µg/mL (≈ 75.8 µM) | > 50 µg/mL
3 | CCCCCCCCNC(=O)ON=C(Br)Br [Compound 7, N-(n-octyl)-dibromoformaldoxime carbamate] | – | – | < 4 µg/mL | 63 µg/mL (≈ 176 µM) | 125 µg/mL (≈ 349 µM) | > 500 µg/mL | 12.5 µg/mL (≈ 34.9 µM) | 50 µg/mL (≈ 140 µM)
4 | CCCCNC(=O)ON=C(Br)Br [Compound 6, N-(n-butyl)-dibromoformaldoxime carbamate] | 16 ppm | 16 ppm | < 4 µg/mL | 250 µg/mL (≈ 828 µM) | 63 µg/mL (≈ 209 µM) | 63 µg/mL (≈ 209 µM) | > 50 µg/mL | > 50 µg/mL
5 | O=C(Nc1ccc(Cl)cc1)ON=C(Br)Br [Compound 3, N-(4-chlorophenyl)-dibromoformaldoxime carbamate] | 8 ppm | <4 ppm | < 4 µg/mL | 63 µg/mL (≈ 177 µM) | 63 µg/mL (≈ 177 µM) | 63 µg/mL (≈ 177 µM) | > 50 µg/mL | > 50 µg/mL
